Reference: US6887676B1 (priority 1999, dated 2005)

Columns and labels:
[1] = target: T1, type 1 PrP^Sc (Homo sapiens, UniProt P04156); assay type: biochemical; settings: FIGS. 3e and f; for ability of selective chelator to mirror the EDTA action on type 1 PrP^Sc cleavage: 20 mM chelator, N-ethylmorpholine buffer; for cleavage pattern of type 1 PrP^Sc digested in presence of copper-selective chelator: 20 mM, intermediate between type 1 and type 2^-
[2] = target: T1, type 1 PrP^Sc; settings: for effectiveness in maintaining type 1 PrP^Sc conformation: 30 μM metal ion; for effect of metal ion on electrophoretic mobility of metal-depleted, proteinase K digested type 1 PrP^Sc: exposure prior to and during electrophoresis, FIG. 4b; for digestion products of type 1 PrP^Sc washed in maintained presence of metal ion: total concentrations observed in serum, FIG. 4a; for concentration at which type 1 PrP^Sc conformation could be readily maintained: washing before PK digestion
[3] = test system: amyloid Aβ protein; settings: cited from earlier work
[4] = target: type 2 PrP^Sc (Homo sapiens, UniProt P04156); settings: different concentrations; FIG. 4d
[5] = target: recombinant full length hamster PrP (Mesocricetus auratus, UniProt P04273); settings: read-out: dissociation constant of Cu^2+ binding; cited from earlier work
Sequence of recombinant full length hamster PrP (P04273 23-254 limits assumed): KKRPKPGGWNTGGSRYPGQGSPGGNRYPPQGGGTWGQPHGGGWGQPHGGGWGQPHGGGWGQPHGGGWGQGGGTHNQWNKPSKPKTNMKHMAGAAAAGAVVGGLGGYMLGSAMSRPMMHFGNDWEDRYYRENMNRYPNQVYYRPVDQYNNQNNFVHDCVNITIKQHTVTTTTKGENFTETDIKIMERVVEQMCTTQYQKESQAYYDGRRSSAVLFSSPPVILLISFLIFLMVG

## c1cnc2c(c1)ccc1cccnc12 [1, 10 phenanthroline]
[1]
  ability of selective chelator to mirror the EDTA action on type 1 PrP^Sc cleavage: unable to precisely mirror this action

## [Cl-].[Cl-].[Co+2] [Co^2+]
[2]; FIG. 4c
  effectiveness in maintaining type 1 PrP^Sc conformation: only Ni^2+ can effectively substitute
[2]; 30 μM, FIG. 4c
  cleavage pattern of type 1 PrP^Sc after washing and digestion with Co^2+: intermediate pattern
[3]
  induction of aggregation of Aβ protein: also effective

## O=S(=O)([O-])[O-].[Cu+2] [Cu^2+]
[2]; 20 μM of range 10-25 μM, FIG. 4a lanes 6-8
  cleavage pattern of type 1 PrP^Sc after washing and digestion with Cu^2+: migrated with a mobility similar to that of the type 2 products
[2]
  effect of metal ion on electrophoretic mobility of metal-depleted, proteinase K digested type 1 PrP^Sc: had no effect
  digestion products of type 1 PrP^Sc washed in maintained presence of metal ion: digestion products closely resembled those generated from untreated type 1 PrP^Sc
  concentration at which type 1 PrP^Sc conformation could be readily maintained: higher concentrations of Cu^2+ were required
[4]
  digestion products of type 2 PrP^Sc washed in maintained presence of metal ion: either the original type 2 pattern of digestion products, or a new pattern of higher molecular mass cleavage fragments closely similar to those generated from untreated type 1 PrP^Sc
[3]
  induction of aggregation of Aβ protein: able to induce aggregation of Aβ protein
[5]
  Kd: 14 µM

## O=C(O)CN(CCOCCOCCN(CC(=O)O)CC(=O)O)CC(=O)O [EGTA]
[1]
  ability of selective chelator to mirror the EDTA action on type 1 PrP^Sc cleavage: unable to precisely mirror this action
  cleavage pattern of type 1 PrP^Sc digested in presence of copper-selective chelator: intermediate pattern

## [Cl][Mn][Cl] [Mn^2+]
[2]; FIG. 4c
  effectiveness in maintaining type 1 PrP^Sc conformation: only Ni^2+ can effectively substitute

## [Cl][Ni][Cl] [Ni^2+]
[2]; FIG. 4c
  effectiveness in maintaining type 1 PrP^Sc conformation: can effectively substitute
[3]
  induction of aggregation of Aβ protein: also effective

## [Cl-].[Cl-].[Zn+2] [Zn^2+]
[2]
  effect of metal ion on electrophoretic mobility of metal-depleted, proteinase K digested type 1 PrP^Sc: had no effect
  digestion products of type 1 PrP^Sc washed in maintained presence of metal ion: digestion products closely resembled those generated from untreated type 1 PrP^Sc
  concentration at which type 1 PrP^Sc conformation could be readily maintained: 10 µM
[4]
  digestion products of type 2 PrP^Sc washed in maintained presence of metal ion: either the original type 2 pattern of digestion products, or a new pattern of higher molecular mass cleavage fragments closely similar to those generated from untreated type 1 PrP^Sc
[3]
  induction of aggregation of Aβ protein: able to induce aggregation of Aβ protein

## O=S(=O)(O)c1ccc(-c2ccnc3c2ccc2c(-c4ccc(S(=O)(=O)O)cc4)ccnc23)cc1 [bathophenanthroline disulfonic acid]
[1]
  ability of selective chelator to mirror the EDTA action on type 1 PrP^Sc cleavage: unable to precisely mirror this action

## O=C(O)c1cccc(C(=O)O)n1 [dipicolinic acid]
[1]
  ability of selective chelator to mirror the EDTA action on type 1 PrP^Sc cleavage: unable to precisely mirror this action

## Cc1ccc2ccc3ccc(C)nc3c2n1 [neocuproine]
[1]
  ability of selective chelator to mirror the EDTA action on type 1 PrP^Sc cleavage: unable to precisely mirror this action

## NCCNCCNCCN [triethylenetetramine]
[1]
  ability of selective chelator to mirror the EDTA action on type 1 PrP^Sc cleavage: unable to precisely mirror this action
  cleavage pattern of type 1 PrP^Sc digested in presence of copper-selective chelator: intermediate pattern
